Data taken from patent US12251398B2, “Topical compositions designated to maintain and/or restore the integrity of the mucosa and damaged epidermis” (RICERFARMA S.R.L., priority 2020, dated 2025).

What was measured:
[1] = test system: Hyaluronidase from bovine testes I-S Type; experiment: Enzymatic degradation of hyaluronic acid by hyaluronidase, Mw followed by HP-SEC-TDA; format: biochemical; conditions: in words
Text: The molecular weight distribution of degraded acids will be analyzed by using High Performance Size Exclusion Chromatography coupled with a Triple Detector Array (HP-SEC-TDA).
The following is the list of reagents and materials used: • Hyaluronic acid (Mw 1.348.000 Da), Contipro a.s. (Czech Republic) • Hyaluronic acid (Mw 1.450.000 Da), Lehvoss Italia S.r.l. (Italy) • Glycerophosphocholine • Ascorbyl Palmitate • Citric acid monohydrate, Sigma Aldrich • Deionized H2O obtained with a Culligan apparatus; • Hyaluronidase from bovine testes I-S Type. 400-1000 units/mg. Sigma Aldrich; • NaNO3. Sigma Aldrich; • NaN3. Sigma Aldrich; • Snap-it vial 0.3 ml, 11.6×32 mm. Thermo Scientific; • Snap-it cap 11 mm, Thermo Scientific; • Sodium citrate diidrate, Sigma Aldrich. Samples Prepared and Tested:
10 ml of solution were hydrolyzed.
Buffer Solution: Solution 1 has been added to Solution 2 and stirred at room temperature for 30′. Resulting pH=6.06.
Hyaluronidase: about 10 mg of hyaluronidase were dissolved in about 1 ml of H2O and stirred at room temperature for 3 hours (10 mg/ml).
The solutions were stirred at 38° C. in an oil bath for about 1 h before adding 67 μl of the enzyme solution (HA/Hyaluronidase 15/1 w/w).
Different aliquots of solutions were collected at different timing (1 h; 2 h; 3 h; 4 h; 5 h; 6 h, 24 h) and heated at 100° C. for 5′ using a thermoshaker to denature the enzyme. The solutions were filtrated to remove the precipitated enzyme (LLG-Syringe filter CA pore size 0.20 μm. Ø 13 mm). Before HP-SEC-TDA analyses, the solutions were diluted to 0.5 mg/ml of HA with mobile phase.
Two equivalent HP-SEC-TDA instruments were used: • 1) Viscotek system model TDA305. equipped with Refractive Index, Right and Low Angle Light Scattering and Viscometers detectors, was used under the following conditions: • Columns: 2 columns TSKGMPWXL 13 μm. […]

[2] = as disclosed in WO93/19730; cited from earlier work
hyaluronidases = conditions: known, in words; cited from earlier work

Row | Compound | effect on the enzymatic kinetics of HA degradation [1] | systemic toxicity [2] | topical tolerability [2] | inhibitory activity against hyaluronidases (hyaluronidases) | effect on the enzymatic kinetics of HA degradation ([1]; listed as ascorbyl palmitate)
1 | C[N+](C)(C)CCOP(=O)([O-])OC[C@H](O)CO [Glycerophosphocholine] | does not contribute in any way to the enzymatic kinetics | practically devoid of systemic toxicity | marked topical tolerability |  | 
2 | CCCCCCCCCCCCCCCC(=O)OC[C@H](O)[C@H]1OC(=O)C(O)=C1O [Ascorbyl Palmitate, Ascorbyl palmitate] | significantly effective in slowing down the enzymatic kinetics |  |  | significant inhibitory activity | significantly effective in slowing enzymatic kinetics
